Results published in patent US4603044A, “Hepatocyte Directed Vesicle delivery system” (Technology Unlimited, Inc., priority 1984, dated 1986).

Assays:
[1] = tested on: selectively denervated dog; assay: Conversion of hepatic glucose output to uptake in selectively denervated dog, intravenous infusion (biliverdin target); assay type: in vivo
Procedure: This dog, when infused with glucose, has portal vein glucose values (mg % measured with a Beckman Glucose Analyzer) that are less than hepatic vein glucose, indicating a hep hepatic glucose output. This is clearly seen in the data presented in the of FIG. 6. The dog is in a state of glucose output for time 15, 30 and 40 minutes. […]

[2] = tested on: selectively denervated dog; assay: Conversion of hepatic glucose output to uptake in selectively denervated dog, intraduodenal injection; assay type: in vivo; settings: infusion for thirty minutes
Procedure: In this model, the response of the HDV Serotonin was the conversion of hepatic glucose output to uptake. This conversion was determined by measuring the glucose levels (Beckman Glucose Analyzer) in simultaneously obtained blood samples from the portal and hepatic veins. Sampling was by means of sampling catheters acutely placed under general anesthesia.
The state of hepatic glucose output occur when the level of glucose (mg %) in the hepatic vein exceeds that of the portal vein. Hepatic glucose uptake is the reverse situation.
Data for the experiment are found in the graph of FIG. 5. At "0" minutes, during the control period, the animal is in a state of hepatic glucose output. Because of the selective denervation, the animal stays in output (at 20 and 55 minutes), even though glucose is being infused at a rate of 0.5 g/kg body weight/hour via a mesenteric vein.
The HDV Serotonin is injected into the duodenum (0.8 ml containing 3 ug serotonin/kg) at 60 minutes.

[3] = tested on: denervated dogs (diabetic-like state); assay: Blood glucose response to a standardized meal in selectively denervated (diabetic-like) dogs; assay type: in vivo, dog; settings: serotonin 150 ug, intravenously or subcutaneously
Description: In a first study testing the HDV system, a chronic dog model was selected which mimics the early stages of adult onset diabetes mellitus, now referred to as diabetes mellitus Type II. In this model, the diabetes was induced by selective denervation.
This study was divided into three phases, studying the blood glucose response of the animals while in the (1) normal state; (2) diabetic-like state; and (3) successful treatment of the diabetic-like state with subcutaneously administered HDV containing serotonin.
The experimental plan required four normal, healthy mongrel dogs. […] The graph of FIG. 1 is a comparison chart for in vivo testing.
The data for this normal phase are shown in the graph as the line indicated by reference number 10. The data are expressed as a percentage of the fasting blood glucose value taken prior to feeding. Since four dogs were used, the average or mean value for the data is plotted. The data are statistically analyzed, and the variation in the data is shown by the small vertical bars above and below the data points. These bars are the standard error of the mean (SEM).
Following the acquisition of the data described above, the dogs were surgically denervated to induce the diabetic-like state and allowed a week to recover. At this time the study is again repeated, and the data are shown as the line indicated by reference number 12, along with the error bars (SEM). […]

[4] = tested on: insulin-deficient (diabetic) dog; assay: Conversion of hepatic glucose output to uptake in insulin-deficient (diabetic) dog, intravenous infusion; assay type: in vivo; settings: insulin alone
Description: The response of HDV Insulin to be measured was the conversion of hepatic glucose output to uptake by measuring the glucose (Beckman Glucose Analyzer) levels of simultaneously obtained portal and hepatic vein blood. Diabetes had been induced by the method of Black, (Am. J. Pathol. Vol 98, No. 2, pg 295-305, 1980) and sampling was done via portal and hepatic vein catheters acutely placed under general anesthesia. The dog had been fasted from food for twenty-four hours and taken off of exogenously-administered insulin for forty-eight hours.
The state of hepatic glucose output occurs when the hepatic vein glucose level (in mg%) exceeds the portal vein glucose level. Hepatic glucose uptake is the reverse.
The data for the experiment are found in the graph of FIG. 4. At "0" minutes the dog is in glucose output, and this output is maintained through the "23" and "35" minute samples, even though glucose is infused via a mesenteric vein at a rate of 0.5 g/kg body weight/hour. An intact (non-diabetic) animal would have immediately converted to glucose uptake. This dog's diabetic state is confirmed by its' not converting to glucose uptake at these times.
Following the "35" minutes sampling, HDV Insulin was infused via the left external jugular vein at a rate of 0.03 mU/kg/minute. […] The minimum infusion rate for insulin alone is 6.25 mU/kg/minute. […]

[5] = tested on: hypophysectomized rats; assay: Growth stimulation in hypophysectomized rats, daily subcutaneous injection; assay type: in vivo, rat
Procedure: The HDVGH was administered to rats daily by subcutaneous injection. The control rats required 10 ugGH per day (also given subcutaneously) to maintain normal growth of 1 g weight gain per day. The HDVGH treated rats attained normal growth rates with dosages of HDVGH of 0.15 to 1.5 ug per day. Thus, the HDVGH required only 1/7th to 1/50th of the regular dose of growth hormone. The HDVGH was superpotent and was efficacious when given by subcutaneous injection.

## NCCc1c[nH]c2ccc(O)cc12 [serotonin, 5-hydroxytryptamine]
[1]
  rate of free serotonin infusion required: 30 µg/kg/min
[2]
  intraportal infusion of free serotonin required for the same pharmacologic effect: 10-30 ug/kg body weight/minute
[3]
  effect of free serotonin on post-meal blood glucose elevation: not effective

## insulin: free hormone insulin, comparator to HDV Insulin
[4]
  minimum infusion rate for conversion to hepatic glucose uptake: 6.25 mU/kg/minute

B1: GH: free growth hormone given subcutaneously to control rats (protein, UniProt P01244 27-216, looked up)
Somatotropin: FPAMPLSSLFANAVLRAQHLHQLAADTYKEFERAYIPEGQRYSIQNAQAAFCFSETIPAPTGKEEAQQRTDMELLRFSLLLIQSWLGPVQFLSRIFTNSLMFGTSDRVYEKLKDLEEGIQALMQELEDGSPRIGQILKQTYDKFDANMRSDDALLKNYGLLSCFKKDLHKAETYLRVMKCRRFAESSCAF
[5]
  daily dose to attain/maintain normal growth (1 g weight gain per day): 10 ug per day
